Where two headings read alike, the source gives them in different places. Blank lines part the entries; values can stand above or below the compound they belong to.
Key:
[1] = target: T1, full-length recombinant human NEK7 (Homo sapiens, UniProt Q8TDX7); assay: NEK7 enzymatic assay ([33P]-ATP, casein substrate); type: biochemical
T1 construct: full-length recombinant human NEK7; GST (N); purchased SignalChem N09-10G; host or cells: Sf9 insect cells (baculovirus)
In short: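 GST-tagged enzyme, baculovirus-expressed in Sf9 cells, was mixed with casein in 20 mM Hepes pH 7.5, 10 mM MgCl2, 1 mM EGTA, 0.02% Brij35, 2 mM DTT, 1% DMSO. Compounds (3-fold series, 10 μM–0.5 nM) were preincubated 20 min at RT, then [33P]-ATP was added for 2 h at RT. P81 filter-bound radioactivity was expressed as % of vehicle activity and fitted to IC50.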

IL-1β release = IL-1β release assay (PMA-differentiated THP-1 cells, LPS + nigericin, cleaved IL-1β by JESS); type: cell-based; settings: Homo sapiens
Protocol: (§1) Approximately 1.5 million THP-1 cells were plated in each well of a 6-well TC plate and incubated with 40 nM PMA in RPMI (10% FBS, 1% Penstrep) for 24 hours. The media was then removed and cells were rested in RPMI (10% FBS, 1% Penstrep) for 24 hours after which time the media was removed and cells were pre-treated for 2 hours with various concentrations of compounds of interest (typically serial 3-fold dilution in RPMI +5% FBS, concentrations ranging from 1 μM to 0.5 nM) in RPMI (5% FBS). The media was again removed and cells were incubated with 250 ng/mL LPS and compounds of interest (concentrations as above) in RMPI (5% FBS) for 2 hours. The media was removed for a last time and cells were incubated with 20 μM nigericin and compounds of interest (concentrations as above) in Opti-MEM for 30 minutes. Cell media was then collected and the amount of cleaved IL-1β was determined using a JESS instrument (Protein Simple) and standard protocols. Cleaved 1-PD antibody was obtained from Cell Signaling (catalogue #83186S) and was used at 1:20 dilution in antibody diluent 2. Protein Simple 1× anti-Rabbit HRP secondary antibody was used along with Protein Simple luminol and peroxide for chemiluminescent detection. Primary antibody incubation time was increased from 30 minutes to 60 minutes.
as §1, with “RPMI+5%” for “RPMI +5%”, “Il-1β” for “1-PD”

[2] = comparative compounds of Structure (II)
[3] = Table 2d, recombinant human NEK7, casein substrate
[4] = 48 h, Table 2d, THP-1 cells, LPS + nigericin, read-out: IL-1β release IC50
[5] = Table 2a, recombinant human NEK7, casein substrate
[6] = Table 2a, THP-1 cells, LPS + nigericin, read-out: II-1β release IC50
[7] = Table 2e, recombinant human NEK7, casein substrate
[8] = Table 2b, recombinant human NEK7, casein substrate

T1 sequence (Q8TDX7 whole entry): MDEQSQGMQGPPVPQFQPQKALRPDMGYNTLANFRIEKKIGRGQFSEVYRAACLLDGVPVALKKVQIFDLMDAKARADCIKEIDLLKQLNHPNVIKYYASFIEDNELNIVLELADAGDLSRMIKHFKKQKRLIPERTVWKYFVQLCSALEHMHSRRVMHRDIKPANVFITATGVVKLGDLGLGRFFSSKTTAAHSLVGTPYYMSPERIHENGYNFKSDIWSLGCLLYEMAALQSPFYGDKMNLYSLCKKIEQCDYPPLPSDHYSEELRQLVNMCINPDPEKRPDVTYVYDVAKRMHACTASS

IC50 [1, 2]: < 0.15 µM | IC50 (IL-1β release; THP-1, comparative compounds of Structure (II), read-out: IL-1β release IC50): > 1 µM
Structure (SMILES): Nc1ncnc2c1c(-c1ccc3c(c1Cl)CCN3C(=O)Cc1cc(C(F)(F)F)ccc1F)cn2C1CC1 [II-16, 1-(5-(4-amino-7-cyclopropyl-7H-pyrrolo[2,3-d]pyrimidin-5-yl)-4-chloroindolin-1-yl)-2-(2-fluoro-5-(trifluoromethyl)phenyl)ehtan-1-one]

IC50 [1, 3]: < 0.15 µM | IC50 (IL-1β release; [4]): < 0.15 µM
Structure (SMILES): CN1CCN(Cc2ccc(NC(=O)Nc3ccc(-c4nn(C5CC5)c5ncnc(N)c45)cc3F)cc2F)CC1 [Id-27, 1-(4-(4-amino-1-cyclopropyl-1H-pyrazolo[3,4-d]pyrimidin-3-yl)-2-fluorophenyl)-3-(3-fluoro-4-((4-methylpiperazin-1-yl)methyl)phenyl)urea]

IC50 [1, 5]: < 0.15 µM | IC50 (IL-1β release; [6]): < 0.15 µM
Structure (SMILES): CC(C)(C)c1cc(NC(=O)Nc2ccc(-c3nn(C4CC4)c4ncnc(N)c34)cc2F)on1 [Ia-13, 1-(4-(4-amino-1-cyclopropyl-1H-pyrazolo[3,4-d]pyrimidin-3-yl)-2-fluorophenyl)-3-(3-(tert-butyl)isoxazol-5-yl)urea]

IC50 [1, 5]: 0.501 to 1.5 µM | IC50 (IL-1β release; [6]): 0.301 to 0.5 µM
Structure (SMILES): CC(C)(C)c1nnc(NC(=O)Nc2ccc(-c3nn(C4CC4)c4ncnc(N)c34)cc2F)s1 [Ia-33, 1-(4-(4-amino-1-cyclopropyl-1H-pyrazolo[3,4-d]pyrimidin-3-yl)-2-fluoropbenyl)-3-(5-(tert-butyl)-1,3,4-thiadiazol-2-yl)urea]

IC50 [1, 3]: < 0.15 µM | IC50 (IL-1β release; [4]): < 0.15 µM
Structure (SMILES): CN1CCN(Cc2ccc(NC(=O)Nc3ccc(-c4nn(CC(C)(C)O)c5ncnc(N)c45)cc3F)cc2C(F)(F)F)CC1 [Id-28, 1-(4-(4-amino-1-(2-hydroxy-2-methylpropyl)-1H-pyrazolo[3,4-d]pyrimidin-3-yl)-2-fluorophenyl)-3-(4-((4-methylpiperazin-1-yl)methyl)-3-(trifluoromethyl)phenyl)urea]

IC50 [1, 7]: 0.501 to 1.5 µM | IC50 (IL-1β release; Table 2e, THP-1 cells, LPS + nigericin, read-out: IL-1β release IC50): < 0.15 µM
Structure (SMILES): CN1CCN(Cc2ccc(NC(=O)Nc3ccc(Oc4ccnc5[nH]cc(C6CC6)c45)cc3F)cc2C(F)(F)F)CC1 [Ie-26, 1-(4-((3-cyclopropyl-1H-pyrrolo[2,3-b]pyridin-4-yl)oxy)-2-fluorophenyl)-3-(4-((4-methylpiperazin-1-yl)methyl)-3-(trifluoromethyl)phenyl)urea]

IC50 [1, 3]: < 0.15 µM | IC50 (IL-1β release; [4]): < 0.15 µM
Structure (SMILES): CN1CCN(Cc2ccc(NC(=O)Nc3ccc(-c4cn(C5CC5)c5ncnc(N)c45)cc3F)cc2C(F)(F)F)CC1 [Id-33, 1-(4-(4-amino-7-cyclopropyl-7H-pyrrolo[2,3-d]pyrimidin-5-yl)-2-fluorophenyl)-3-(4-((4-methylpiperazin-1-yl)methyl)-3-(trifluoromethyl)phenyl)urea]

IC50 [1, 8]: 0.501 to 1.5 µM | IC50 (IL-1β release; Table 2b, THP-1 cells, LPS + nigericin, read-out: Il-1β release IC50): > 1 µM
Structure (SMILES): Cc1[nH]c2nccc(Oc3ccc(NC(=O)Nc4cc(C(C)(C)C)nn4-c4ccccc4)c(F)c3)c2c1Cl [Ib-14]

IC50 [1, 5]: < 0.15 µM
Structure (SMILES): CC(C)(C)c1cc(NC(=O)Nc2ccc(-c3nn(C4CC4)c4ncnc(N)c34)cc2)on1 [Ia-20, 1-(4-(4-amino-1-cyclopropyl-1H-pyrazolo[3,4-d]pyrimidin-3-yl)phenyl)-3-(3-(tert-butyl)isoxazol-5-yl)urea]

IC50 [1, 8]: > 1.5 µM
Structure (SMILES): CC(C)(C)c1cc(NC(=O)NC2CCC(Oc3ccnc4[nH]ccc34)CC2)n(-c2ccccc2)n1 (centres unmarked) [Ib-16, 1-(4-((1H-pyrrolo[2,3-b]pyridin-4-yl)oxy)cyclohexyl)-3-(3-(tert-butyl)-1-phenyl-1H-pyrazol-5-yl)urea]

IC50 [1, 3]: > 1.5 µM
Structure (SMILES): COc1cc(NC(=O)Nc2ccc(-c3cn(C4CC4)c4ncnc(N)c34)cc2F)ccc1CN1CCN(C)CC1 [Id-37, 1-(4-(4-amino-7-cyclopropyl-7H-pyrrolo[2,3-d]pyrimidin-5-yl)-2-fluorophenyl)-3-(3-methoxy-4-((4-methylpiperazin-1-yl)methyl)phenyl)urea]

IC50 [1, 7]: > 1.5 µM
Structure (SMILES): CN1C[C@@H]2CN(Cc3ccc(NC(=O)Nc4ccc(Oc5ccnc6[nH]cc(Cl)c56)cc4F)cc3C(F)(F)F)C[C@@H]2C1 [Ie-18, 1-(4-((3-chloro-1H-pyrrolo[2,3-b]pyridin-4-yl)oxy)-2-fluorophenyl)-3-(4-(((3aR,6aS)-5-methylhexahydropyrrolo[3,4-c]pyrrol-2(1H)-yl)methyl)-3-(trifluoromethyl)phenyl)urea]

IC50 [1, 2]: 0.151 to 0.3 µM
Structure (SMILES): CC(C)n1nc(-c2ccc3c(c2F)CCN3C(=O)Cc2ccc(F)c(C(F)(F)F)c2)c2c(N)ncnc21 [II-2, 1-(5-(4-amino-1-isopropyl-1H-pyrazol[3,4-d]pyrimidin-3-yl)-4-fluoroindolin-1-yl)-2-(4-fluoro-3-(trifluoromethyl)phenyl)ethan-1-one]

IC50 [1, 7]: > 1.5 µM
Structure (SMILES): CN1CCN(C(=O)c2ccc(NC(=O)Nc3ccc(Oc4ccnc5[nH]cc(Cl)c45)cc3F)cc2C(F)(F)F)CC1 [Ie-15, 1-(4-((3-chloro-1H-pyrrolo[2,3-b]pyridin-4-yl)oxy)-2-fluorophenyl)-3-(4-(4-methylpiperazine-1-carbonyl)-3-(trifluoromethyl)phenyl)urea]

IC50 [1, 8]: 0.501 to 1.5 µM
Structure (SMILES): O=C(Nc1ccc(Oc2ccnc3[nH]cc(Cl)c23)cc1F)Nc1cc(C2CC2)nn1-c1ccccc1 [Ib-11, 1-(4-((3-chloro-1H-pyrrolo[2,3-b]pyridin-4-yl)oxy)-2-fluorophenyl)-3-(3-cyclopropyl-1-phenyl-1H-pyrazol-5-yl)urea]

IC50 [1, 5]: 0.301 to 0.5 µM
Structure (SMILES): CC(C)c1cc(NC(=O)Nc2ccc(-c3nn(C4CC4)c4ncnc(N)c34)cc2F)on1 [Ia-41, 1-(4-(4-amino-1-cyclopropyl-1H-pyrazolo[3,4-d]pyrimidin-3-yl)-2-fluorophenyl)-3-(3-isopropylisoxazo1-5-yl)urea]

IC50 [1, 3]: 0.501 to 1.5 µM
Structure (SMILES): CN1CCN(Cc2ccc(NC(=O)Nc3ccc(-c4cn(C5CC5)c5ncnc(N)c45)cc3F)c(F)c2)CC1 [Id-64]

IC50 [1, 8]: > 1.5 µM
Structure (SMILES): Cc1cc(NC(=O)Nc2ccc(Oc3ccnc4[nH]cc(Cl)c34)cc2F)n(-c2ccc(C#N)cc2)n1 [Ib-9, 1-(4-((3-chloro-1H-pyrrolo[2,3-b]pyridin-4-yl)oxy)-2-fluorophenyl)-3-(1-(4-cyanophenyl)-3-methyl-1H-pyrazol-5-yl)urea]

IC50 [1, 5]: 0.501 to 1.5 µM
Structure (SMILES): CC(C)n1nc(-c2ccc(NC(=O)Nc3cc(C(C)(C)C)no3)c(Cl)c2)c2c(N)ncnc21 [Ia-6]

IC50 [1, 8]: > 1.5 µM
Structure (SMILES): O=C(Nc1ccc(Oc2ccnc3[nH]cc(Cl)c23)cc1F)Nc1cc(C2(C(F)(F)F)CC2)nn1-c1ccccc1 [Ib-17, 1-(4-((3-chloro-1H-pyrrolo[2,3-b]pyridin-4-yl)oxy)-2-fluorophenyl)-3-(1-phenyl-3-(1-(trifluoromethyl)cyclopropyl)-1H-pyrazol-5-yl)urea]

IC50 [1, 3]: 0.151 to 0.3 µM
Structure (SMILES): CN1CCN(Cc2ccc(NC(=O)Nc3ccc(-c4nn(C5CC5)c5ncnc(N)c45)cn3)cc2C(F)(F)F)CC1 [Id-29, 1-(5-(4-amino-1-cyclopropyl-1H-pyrazolo[3,4-d]pyrimidin-3-yl)pyridin-2-yl)-3-(4-((4-methylpiperazin-1-yl)methyl)-3-(trifluoromethyl)phenyl)urea]

IC50 [1, 5]: 0.151 to 0.3 µM
Structure (SMILES): CCC(C)c1cc(NC(=O)Nc2ccc(-c3nn(C4CC4)c4ncnc(N)c34)cc2F)on1 (centres unmarked) [Ia-43, 1-(4-(4-amino-1-cyclopropyl-1H-pyrazolo[3,4-d]pyrimidin-3-yl)-2-fluorophenyl)-3-(3-(sec-butyl)isoxazol-5-yl)urea]

IC50 [1, 7]: > 1.5 µM
Structure (SMILES): O=C(Nc1ccc(CN2CCN(C3CC3)CC2)c(C(F)(F)F)c1)Nc1ccc(Oc2ccnc3[nH]cc(Cl)c23)cc1F [Ie-11, 1-(4-((3-chloro-1H-pyrrolo[2,3-b]pyridin-4-yl)oxy)-2-fluorophenyl)-3-(4-((4-cyclopropylpiperazin-1-yl)methyl)-3-(trifluoromethyl)phenyl)urea]

IC50 [1, 8]: > 1.5 µM
Structure (SMILES): Cc1nc2c(Oc3ccc(NC(=O)Nc4cc(C(C)(C)C)nn4-c4ccccc4)c(F)c3)ccnc2[nH]1 [Ib-19, 1-(3-(tert-butyl)-1-phenyl-1H-pyrazol-5-yl)-3-(2-fluoro-4-((2-methyl-3H-imidazo[4,5-b]pyridin-7-yl)oxy)phenyl)urea]

Source: patent US20230210853A1 (Halia Therapeutics, Inc., priority 2020, published 2023)
